Test results taken from ChEMBL document CHEMBL5614388, “FLT3-PROTACs for combating AML resistance: Analytical overview on chimeric agents developed, challenges, and future perspectives” (Eur J Med Chem, 2024).
pEC50, pIC50: −log10 of the molar value. Each block holds one compound with its values, some of them ahead of it.

Tests used:
MV4-11 [1] = assay: Antiproliferative activity against human MV4-11 cells assessed as reduction in cell viability measured after 48 hrs by CellTiter-Glo assay; type: functional, cell-based; settings: MV4-11, 48 h
MV4-11 [2] = assay: Antiproliferative activity against human MV4-11 cells assessed as reduction in cell growth incubated for 48 hrs by CCK-8 assay; type: functional, cell-based; settings: MV4-11, 48 h
MV4-11 [3] = assay: cells; settings: Homo sapiens
Description: Antiproliferative activity against human MV4-11 cells assessed as reduction in cell viability by WAT-8 reagent based analysis

Kasumi 1 = assay: cells; settings: Homo sapiens, Kasumi 1, 72 h
Description: Antiproliferative activity against human Kasumi 1 cells assessed as reduction in cell viability incubated for 72 hrs by Cell-titer glo luminescent assay

MOLM-13 = assay: Antiproliferative activity against human MOLM-13 cells assessed as reduction in cell viability incubated for 48 hrs by MTS assay; type: functional, cell-based; settings: MOLM-13, 48 h
MV4-11 [4] = assay: Antiproliferative activity against human MV4-11 cells assessed as reduction in cell viability incubated for 48 hrs by MTS assay; type: functional, cell-based; settings: MV4-11, 48 h
BaF3 [5] = assay: Antiproliferative activity against mouse BaF3 cells expressing FLT3-ITD D835Y mutant incubated for 48 hrs by CCK8 assay; type: functional, cell-based; settings: BaF3, 48 h
BaF3 [6] = assay: Antiproliferative activity against mouse BaF3 cells expressing FLT3-ITD F691L mutant incubated for 48 hrs by CCK8 assay; type: functional, cell-based; settings: BaF3, 48 h
BaF3 [7] = assay: Antiproliferative activity against mouse BaF3 cells expressing FLT3-ITD mutant incubated for 48 hrs by CCK8 assay; type: functional, cell-based; settings: BaF3, 48 h
MV4-11 [8] = assay: Antiproliferative activity against human MV4-11 cells assessed as reduction in cell growth; type: functional, cell-based

pIC50 (MV4-11 [1]): 8.32
Structure (SMILES): CC(C)(C)c1cc(NC(=O)Nc2ccc(-c3cn(CCCCc4cn(CCCCC(=O)Nc5cccc6c5CN(C5CCC(=O)NC5=O)C6=O)nn4)c4ncnc(N)c34)cc2)no1 (stereo not given)

pIC50 (MV4-11 [3]): 9.05
Structure (SMILES): CCc1nc(C(N)=O)c(Nc2ccc(N3CCC(N4CCN(C)CC4)CC3)c(OC)c2)nc1NC1CCOCC1 [GILTERITINIB]

pEC50 (Kasumi 1): 7.67
Structure (SMILES): Cc1[nH]c(/C=C2\C(=O)Nc3ccc(F)cc32)c(C)c1C(=O)NCCCCCCNc1cccc2c1C(=O)N(C1CCC(=O)NC1=O)C2=O (stereo not given)

Second part, the compound before the results:

Structure (SMILES): CCc1nc(C(N)=O)c(Nc2ccc(N3CCN(CN4CCN(c5ccc6c(c5)C(=O)N(C5CCC(=O)NC5=O)C6=O)CC4)CC3)c(OC)c2)nc1NC1CCOCC1 (stereo not given)
pIC50 (MV4-11 [2]): 8.78

Structure (SMILES): CCCNc1nc(Nc2ccc(C#N)cc2)ncc1C#CCCCNC(=O)[C@H](C)N(C)C(=O)/C=C/CN(C)C [FF-10101]
pIC50 (MOLM-13): 9.08
pIC50 (MV4-11 [4]): 8.96
pIC50 (BaF3 [5]): 7.95
pIC50 (BaF3 [6]): 7.84
pIC50 (BaF3 [7]): 8.74

Structure (SMILES): O=C(CCCCCCC(=O)Nc1cc(-c2ccc3ncn(Cc4c(Cl)cccc4Cl)c3c2)[nH]n1)NO
pIC50 (MV4-11 [8]): 7.04
